Measurements as given in patent US12077503B2, “Substituted cyclic amides and their use as herbicides” (FMC CORPORATION, priority 2015, dated 2024).
Like-named read-outs stand apart in the source and are kept apart here.

Columns and labels:
Type in all cases: in vivo
[1] = system: Kochia (Kochia scoparia); experiment: Test A preemergence; conditions: Bassia scoparia, pre-emergence, 240 h; for pest or weed control at 125 g/ha: 125 g ai/ha, Preemergence, visual injury rating after approximately 10 d, read-out: Kochia plant response rating (0 to 100 scale, 0 is no effect, 100 is complete control); for pest or weed control at 500 g/ha: 500 g ai/ha, preemergence, visual injury rating about 10 d after treatment, 0 to 100 scale (0 no effect, 100 complete control), read-out: Kochia plant response rating
How it was run: (§1)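 Visual injury, scored on a 0–100 scale relative to untreated controls, was recorded about 10 d after application. Treatments were a preemergence soil spray over planted seeds or a postemergence spray on plants at the one- to two-leaf stage, 2 to 10 cm tall, all in loam soil–sand blend in the greenhouse.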

[2] = system: barnyardgrass (Echinochloa crus-galli); experiment: Test A preemergence; conditions: Echinochloa crus-galli, pre-emergence, 240 h; for pest or weed control at 125 g/ha: 125 g ai/ha, Preemergence, visual injury rating after approximately 10 d, read-out: Barnyardgrass plant response rating (0 to 100 scale, 0 is no effect, 100 is complete control); for pest or weed control at 500 g/ha: 500 g ai/ha, preemergence, visual injury rating about 10 d after treatment, 0 to 100 scale (0 no effect, 100 complete control), read-out: Barnyardgrass plant response rating
How it was run: as §1

[3] = system: giant foxtail (Setaria faberii); experiment: Test A preemergence; conditions: Setaria faberi, pre-emergence, 240 h; for pest or weed control at 125 g/ha: 125 g ai/ha, Preemergence, visual injury rating after approximately 10 d, read-out: Foxtail, Giant plant response rating (0 to 100 scale, 0 is no effect, 100 is complete control); for pest or weed control at 500 g/ha: 500 g ai/ha, preemergence, visual injury rating about 10 d after treatment, 0 to 100 scale (0 no effect, 100 complete control), read-out: Foxtail, Giant plant response rating
How it was run: as §1

[4] = system: pigweed (Amaranthus retroflexus); experiment: Test A preemergence; conditions: Amaranthus retroflexus, pre-emergence, 240 h; for pest or weed control at 125 g/ha: 125 g ai/ha, Preemergence, visual injury rating after approximately 10 d, read-out: Pigweed plant response rating (0 to 100 scale, 0 is no effect, 100 is complete control); for pest or weed control at 500 g/ha: 500 g ai/ha, preemergence, visual injury rating about 10 d after treatment, 0 to 100 scale (0 no effect, 100 complete control), read-out: Pigweed plant response rating
[5] = system: ragweed (common ragweed, Ambrosia elatior); experiment: Test A preemergence; conditions: Ambrosia artemisiifolia, pre-emergence, 240 h; for pest or weed control at 125 g/ha: 125 g ai/ha, Preemergence, visual injury rating after approximately 10 d, read-out: Ragweed plant response rating (0 to 100 scale, 0 is no effect, 100 is complete control); for pest or weed control at 500 g/ha: 500 g ai/ha, preemergence, visual injury rating about 10 d after treatment, 0 to 100 scale (0 no effect, 100 complete control), read-out: Ragweed plant response rating
How it was run: as §1

[6] = system: ryegrass, Italian (Italian ryegrass, Lolium multiflorum); experiment: Test A preemergence; conditions: Lolium multiflorum, pre-emergence, 240 h; for pest or weed control at 125 g/ha: 125 g ai/ha, Preemergence, visual injury rating after approximately 10 d, read-out: Ryegrass, Italian plant response rating (0 to 100 scale, 0 is no effect, 100 is complete control); for pest or weed control at 500 g/ha: 500 g ai/ha, preemergence, visual injury rating about 10 d after treatment, 0 to 100 scale (0 no effect, 100 complete control), read-out: Ryegrass, Italian plant response rating
How it was run: as §1

[7] = system: Galium (catchweed bedstraw, Galium aparine); experiment: Test A postemergence; conditions: Galium, post-emergence, 240 h; for pest or weed control at 125 g/ha: 125 g ai/ha; for pest or weed control at 500 g/ha: 500 g ai/ha, visual injury, 0 to 100 scale (0 no effect, 100 complete control)
How it was run: as §1

[8] = system: Kochia (Kochia scoparia); experiment: Test A postemergence; conditions: Bassia scoparia, post-emergence, 240 h; for pest or weed control at 125 g/ha: 125 g ai/ha; for pest or weed control at 500 g/ha: 500 g ai/ha, visual injury, 0 to 100 scale (0 no effect, 100 complete control)
How it was run: as §1

[9] = system: barnyardgrass (Echinochloa crus-galli); experiment: Test A postemergence; conditions: Echinochloa crus-galli, post-emergence, 240 h, read-out: Plant response rating, Barnyardgrass; for pest or weed control at 125 g/ha: 125 g ai/ha, Postemergence, visual injury after approximately 10 d, 0 to 100 scale where 0 is no effect and 100 is complete control; for pest or weed control at 500 g/ha: 500 g ai/ha, postemergence, visual injury, 0 to 100 scale (0 no effect, 100 complete control), approx. 10 d
How it was run: as §1

[10] = system: blackgrass (Alopecurus myosuroides); experiment: Test A postemergence; conditions: Alopecurus myosuroides, post-emergence, 240 h, read-out: Plant response rating, Blackgrass; for pest or weed control at 125 g/ha: 125 g ai/ha, Postemergence, visual injury after approximately 10 d, 0 to 100 scale where 0 is no effect and 100 is complete control; for pest or weed control at 500 g/ha: 500 g ai/ha, postemergence, visual injury, 0 to 100 scale (0 no effect, 100 complete control), approx. 10 d
How it was run: as §1

[11] = system: corn (Zea mays); experiment: Test A postemergence; conditions: Zea mays, post-emergence, 240 h; for Corn plant response rating (crop injury, 0 = no effect, 100 = complete kill) at 125 g/ha: 125 g ai/ha, Postemergence, visual injury after approximately 10 d, 0 to 100 scale where 0 is no effect and 100 is complete control; for Corn plant response rating (crop injury, 0 = no effect, 100 = complete kill) at 500 g/ha: 500 g ai/ha, postemergence, visual injury, 0 to 100 scale (0 no effect, 100 complete control), approx. 10 d
How it was run: as §1

[12] = system: pigweed (Amaranthus retroflexus); experiment: Test A postemergence; conditions: Amaranthus retroflexus, post-emergence, 240 h; for pest or weed control at 125 g/ha: 125 g ai/ha; for pest or weed control at 500 g/ha: 500 g ai/ha, visual injury, 0 to 100 scale (0 no effect, 100 complete control)
How it was run: as §1

[13] = system: ragweed (common ragweed, Ambrosia elatior); experiment: Test A postemergence; conditions: Ambrosia artemisiifolia, post-emergence, 240 h; for pest or weed control at 125 g/ha: 125 g ai/ha; for pest or weed control at 500 g/ha: 500 g ai/ha, visual injury, 0 to 100 scale (0 no effect, 100 complete control)
How it was run: as §1

[14] = system: ryegrass, Italian (Italian ryegrass, Lolium multiflorum); experiment: Test A postemergence; conditions: Lolium multiflorum, post-emergence, 240 h; for pest or weed control at 125 g/ha: 125 g ai/ha; for pest or weed control at 500 g/ha: 500 g ai/ha, visual injury, 0 to 100 scale (0 no effect, 100 complete control)
How it was run: as §1

[15] = system: wheat (Triticum aestivum); experiment: Test A postemergence; conditions: Triticum aestivum, post-emergence, 240 h; for plant injury at 125 g/ha: 125 g ai/ha; for plant injury at 500 g/ha: 500 g ai/ha, visual injury, 0 to 100 scale (0 no effect, 100 complete control)
How it was run: as §1

[16] = postemergence, approx. 10 d, read-out: Plant response rating, Galium
[17] = postemergence, approx. 10 d, read-out: Plant response rating, Kochia
[18] = postemergence, approx. 10 d, read-out: Plant response rating, Pigweed
[19] = postemergence, approx. 10 d, read-out: Plant response rating, Ragweed
[20] = postemergence, approx. 10 d, read-out: Plant response rating, Ryegrass, Italian
[21] = postemergence, approx. 10 d, read-out: Plant response rating, Wheat

Structure (SMILES) | pest or weed control at 125 g/ha [1] [%] | pest or weed control at 500 g/ha [1] [%] | pest or weed control at 125 g/ha [2] [%] | pest or weed control at 500 g/ha [2] [%] | pest or weed control at 125 g/ha [3] [%] | pest or weed control at 500 g/ha [3] [%] | pest or weed control at 125 g/ha [4] [%] | pest or weed control at 500 g/ha [4] [%] | pest or weed control at 125 g/ha [5] [%] | pest or weed control at 500 g/ha [5] [%] | pest or weed control at 125 g/ha [6] [%] | pest or weed control at 500 g/ha [6] [%] | pest or weed control at 500 g/ha [7, 16] [%] | pest or weed control at 500 g/ha [8, 17] [%] | pest or weed control at 125 g/ha [9] [%] | pest or weed control at 500 g/ha [9] [%] | pest or weed control at 125 g/ha [10] [%] | pest or weed control at 500 g/ha [10] [%] | Corn plant response rating (crop injury, 0 = no effect, 100 = complete kill) at 125 g/ha [11] [%] | Corn plant response rating (crop injury, 0 = no effect, 100 = complete kill) at 500 g/ha [11] [%] | also measured
Cc1cc([C@H]2CN(C)C(=O)[C@@H]2C(=O)Nc2cccc(F)c2F)cc(C)c1Br [Compound 1024] | 30 | 40 | 70 | 90 | 90 | 90 | 30 | 50 | 0 | 30 | 0 | 90 | 60 | 60 | 90 | 90 | 0 | 20 | 70 | 70 | pest or weed control at 125 g/ha ([7]; Postemergence, visual injury after approximately 10 d, 0 to 100 scale where 0 is no effect and 100 is complete control, read-out: Plant response rating, Galium): 60%; pest or weed control at 125 g/ha ([8]; Postemergence, visual injury after approximately 10 d, 0 to 100 scale where 0 is no effect and 100 is complete control, read-out: Plant response rating, Kochia): 50%; pest or weed control at 125 g/ha ([12]; Postemergence, visual injury after approximately 10 d, 0 to 100 scale where 0 is no effect and 100 is complete control, read-out: Plant response rating, Pigweed): 30%; pest or weed control at 500 g/ha [12, 18]: 50%; pest or weed control at 125 g/ha ([13]; Postemergence, visual injury after approximately 10 d, 0 to 100 scale where 0 is no effect and 100 is complete control, read-out: Plant response rating, Ragweed): 0%; pest or weed control at 500 g/ha [13, 19]: 0%; pest or weed control at 125 g/ha ([14]; Postemergence, visual injury after approximately 10 d, 0 to 100 scale where 0 is no effect and 100 is complete control, read-out: Plant response rating, Ryegrass, Italian): 30%; pest or weed control at 500 g/ha [14, 20]: 30%; plant injury at 125 g/ha ([15]; Postemergence, visual injury after approximately 10 d, 0 to 100 scale where 0 is no effect and 100 is complete control, read-out: Plant response rating, Wheat): 0%; plant injury at 500 g/ha [15, 21]: 30%
O=C1NC[C@H](c2ccc3c(c2)OCO3)[C@H]1C(=O)Nc1ccc(F)c(F)c1F [Compound 1027] | 80 | 90 | 90 | 90 | 40 | 90 | 0 | 40 | 70 | 80 | 30 | 0 | 70 | 30 | 70 | 90 | 0 | 40 | 0 | 0 | pest or weed control at 125 g/ha ([7]; postemergence, visual injury on 0 to 100 scale (0 no effect, 100 complete control), approx. 10 d, read-out: Galium plant response rating): 50%; pest or weed control at 125 g/ha ([8]; postemergence, visual injury on 0 to 100 scale (0 no effect, 100 complete control), approx. 10 d, read-out: Kochia plant response rating): 0%; pest or weed control at 125 g/ha ([12]; postemergence, visual injury on 0 to 100 scale (0 no effect, 100 complete control), approx. 10 d, read-out: Pigweed plant response rating): 0%; pest or weed control at 500 g/ha [12, 18]: 0%; pest or weed control at 125 g/ha ([13]; postemergence, visual injury on 0 to 100 scale (0 no effect, 100 complete control), approx. 10 d, read-out: Ragweed plant response rating): 0%; pest or weed control at 500 g/ha [13, 19]: 0%; pest or weed control at 125 g/ha ([14]; postemergence, visual injury on 0 to 100 scale (0 no effect, 100 complete control), approx. 10 d, read-out: Ryegrass, Italian plant response rating): 0%; pest or weed control at 500 g/ha [14, 20]: 30%; plant injury at 125 g/ha ([15]; postemergence, visual injury on 0 to 100 scale (0 no effect, 100 complete control), approx. 10 d, read-out: Wheat plant response rating): 0%; plant injury at 500 g/ha [15, 21]: 0%
